Key:
Format in all cases: in vivo
[1] = test system: giant foxtail (Setaria faberii); assay: Test A postemergence; settings: Setaria faberi, post-emergence, 240 h, 125 g ai/ha, Postemergence; visual injury after approximately 10 d; 0 to 100 scale where 0 is no effect and 100 is complete control; read-out: Plant response rating, Foxtail, Giant
Summary of the method: (§1)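 Preemergence directed soil spray on seeded pots, or postemergence application to plants 2–10 cm, one- to two-leaf. Solvent mixture non-phytotoxic, with surfactant. Scored ~10 d later, visually, 0–100 vs untreated.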

[2] = test system: barnyardgrass (Echinochloa crus-galli); assay: Test A postemergence; settings: Echinochloa crus-galli, post-emergence, 240 h, 125 g ai/ha, Postemergence; visual injury after approximately 10 d; 0 to 100 scale where 0 is no effect and 100 is complete control; read-out: Plant response rating, Barnyardgrass
Summary of the method: as §1

[3] = test system: Galium (catchweed bedstraw, Galium aparine); assay: Test A postemergence; settings: Galium, post-emergence, 240 h, 125 g ai/ha, Postemergence; visual injury after approximately 10 d; 0 to 100 scale where 0 is no effect and 100 is complete control; read-out: Plant response rating, Galium
Summary of the method: as §1

[4] = test system: corn (Zea mays); assay: Test A postemergence; settings: Zea mays, post-emergence, 240 h, 125 g ai/ha, Postemergence; visual injury after approximately 10 d; 0 to 100 scale where 0 is no effect and 100 is complete control
Summary of the method: as §1

[5] = test system: ryegrass, Italian (Italian ryegrass, Lolium multiflorum); assay: Test A postemergence; settings: Lolium multiflorum, post-emergence, 240 h, 125 g ai/ha, Postemergence; visual injury after approximately 10 d; 0 to 100 scale where 0 is no effect and 100 is complete control; read-out: Plant response rating, Ryegrass, Italian
Summary of the method: as §1

[6] = test system: Kochia (Kochia scoparia); assay: Test A postemergence; settings: Bassia scoparia, post-emergence, 240 h, 125 g ai/ha, Postemergence; visual injury after approximately 10 d; 0 to 100 scale where 0 is no effect and 100 is complete control; read-out: Plant response rating, Kochia
Summary of the method: as §1

[7] = test system: wheat (Triticum aestivum); assay: Test A postemergence; settings: Triticum aestivum, post-emergence, 240 h, 125 g ai/ha, Postemergence; visual injury after approximately 10 d; 0 to 100 scale where 0 is no effect and 100 is complete control; read-out: Plant response rating, Wheat
Summary of the method: as §1

[8] = test system: ragweed (common ragweed, Ambrosia elatior); assay: Test A postemergence; settings: Ambrosia artemisiifolia, post-emergence, 240 h, 125 g ai/ha, Postemergence; visual injury after approximately 10 d; 0 to 100 scale where 0 is no effect and 100 is complete control; read-out: Plant response rating, Ragweed
Summary of the method: as §1

[9] = test system: blackgrass (Alopecurus myosuroides); assay: Test A postemergence; settings: Alopecurus myosuroides, post-emergence, 240 h, 125 g ai/ha, Postemergence; visual injury after approximately 10 d; 0 to 100 scale where 0 is no effect and 100 is complete control; read-out: Plant response rating, Blackgrass
Summary of the method: as §1

[10] = test system: pigweed (Amaranthus retroflexus); assay: Test A postemergence; settings: Amaranthus retroflexus, post-emergence, 240 h, 125 g ai/ha, Postemergence; visual injury after approximately 10 d; 0 to 100 scale where 0 is no effect and 100 is complete control; read-out: Plant response rating, Pigweed
Summary of the method: as §1

[11] = test system: giant foxtail (Setaria faberii); assay: Test A preemergence; settings: Setaria faberi, pre-emergence, 240 h; for pest or weed control at 125 g/ha: 125 g ai/ha, Preemergence, visual injury rating after approximately 10 d, read-out: Foxtail, Giant plant response rating (0 to 100 scale, 0 is no effect, 100 is complete control); for pest or weed control at 500 g/ha: 500 g ai/ha, preemergence, visual injury rating about 10 d after treatment, 0 to 100 scale (0 no effect, 100 complete control), read-out: Foxtail, Giant plant response rating
Summary of the method: as §1

[12] = test system: barnyardgrass (Echinochloa crus-galli); assay: Test A preemergence; settings: Echinochloa crus-galli, pre-emergence, 240 h; for pest or weed control at 125 g/ha: 125 g ai/ha, Preemergence, visual injury rating after approximately 10 d, read-out: Barnyardgrass plant response rating (0 to 100 scale, 0 is no effect, 100 is complete control); for pest or weed control at 500 g/ha: 500 g ai/ha, preemergence, visual injury rating about 10 d after treatment, 0 to 100 scale (0 no effect, 100 complete control), read-out: Barnyardgrass plant response rating
Summary of the method: as §1

[13] = test system: ryegrass, Italian (Italian ryegrass, Lolium multiflorum); assay: Test A preemergence; settings: Lolium multiflorum, pre-emergence, 240 h; for pest or weed control at 125 g/ha: 125 g ai/ha, Preemergence, visual injury rating after approximately 10 d, read-out: Ryegrass, Italian plant response rating (0 to 100 scale, 0 is no effect, 100 is complete control); for pest or weed control at 500 g/ha: 500 g ai/ha, preemergence, visual injury rating about 10 d after treatment, 0 to 100 scale (0 no effect, 100 complete control), read-out: Ryegrass, Italian plant response rating
Summary of the method: as §1

[14] = test system: Kochia (Kochia scoparia); assay: Test A preemergence; settings: Bassia scoparia, pre-emergence, 240 h; for pest or weed control at 125 g/ha: 125 g ai/ha, Preemergence, visual injury rating after approximately 10 d, read-out: Kochia plant response rating (0 to 100 scale, 0 is no effect, 100 is complete control); for pest or weed control at 500 g/ha: 500 g ai/ha, preemergence, visual injury rating about 10 d after treatment, 0 to 100 scale (0 no effect, 100 complete control), read-out: Kochia plant response rating
Summary of the method: as §1

[15] = test system: ragweed (common ragweed, Ambrosia elatior); assay: Test A preemergence; settings: Ambrosia artemisiifolia, pre-emergence, 240 h; for pest or weed control at 125 g/ha: 125 g ai/ha, Preemergence, visual injury rating after approximately 10 d, read-out: Ragweed plant response rating (0 to 100 scale, 0 is no effect, 100 is complete control); for pest or weed control at 500 g/ha: 500 g ai/ha, preemergence, visual injury rating about 10 d after treatment, 0 to 100 scale (0 no effect, 100 complete control), read-out: Ragweed plant response rating
Summary of the method: as §1

[16] = test system: pigweed (Amaranthus retroflexus); assay: Test A preemergence; settings: Amaranthus retroflexus, pre-emergence, 240 h; for pest or weed control at 125 g/ha: 125 g ai/ha, Preemergence, visual injury rating after approximately 10 d, read-out: Pigweed plant response rating (0 to 100 scale, 0 is no effect, 100 is complete control); for pest or weed control at 500 g/ha: 500 g ai/ha, preemergence, visual injury rating about 10 d after treatment, 0 to 100 scale (0 no effect, 100 complete control), read-out: Pigweed plant response rating
[17] = test system: sedge, umbrella (small-flower umbrella sedge, Cyperus difformis); assay: Test B flooded paddy test; settings: Cyperus difformis, Flood, 250 g ai/ha; scale of 0 to 100 where 0 is no effect and 100 is complete control; read-out: Sedge, Umbrella plant response rating
Summary of the method: (§2)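 Greenhouse paddy pots with 2-leaf stage plants received compound by direct addition to floodwater 3 cm deep, kept at that level. Scored visually at 13–15 d versus controls (0 no effect; 100 complete control).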

[18] = test system: barnyardgrass (Echinochloa crus-galli); assay: Test B flooded paddy test; settings: Echinochloa crus-galli, Flood, 250 g ai/ha; scale of 0 to 100 where 0 is no effect and 100 is complete control; read-out: Barnyardgrass plant response rating
Summary of the method: as §2

[19] = test system: rice (Oryra sativa); assay: Test B flooded paddy test; settings: Oryza sativa, Flood, 250 g ai/ha; scale of 0 to 100 where 0 is no effect and 100 is complete control; read-out: Rice plant response rating
Summary of the method: as §2

[20] = test system: ducksalad (Heteranthera limosa); assay: Test B flooded paddy test; settings: Heteranthera limosa, Flood, 250 g ai/ha; scale of 0 to 100 where 0 is no effect and 100 is complete control; read-out: Ducksalad plant response rating
Summary of the method: as §2

| SMILES | pest or weed control at 125 g/ha [1] | pest or weed control at 125 g/ha [2] | pest or weed control at 125 g/ha [3] | Corn plant response rating (crop injury, 0 = no effect, 100 = complete kill) at 125 g/ha [4] | pest or weed control at 125 g/ha [5] | pest or weed control at 125 g/ha [6] | plant injury at 125 g/ha [7] | pest or weed control at 125 g/ha [8] | pest or weed control at 125 g/ha [9] | pest or weed control at 125 g/ha [10] | pest or weed control at 125 g/ha [11] | pest or weed control at 500 g/ha [11] | pest or weed control at 125 g/ha [12] | pest or weed control at 500 g/ha [12] | pest or weed control at 125 g/ha [13] | pest or weed control at 500 g/ha [13] | pest or weed control at 125 g/ha [14] | pest or weed control at 500 g/ha [14] | pest or weed control at 125 g/ha [15] | pest or weed control at 500 g/ha [15] | also measured |
| --- | --- | --- | --- | --- | --- | --- | --- | --- | --- | --- | --- | --- | --- | --- | --- | --- | --- | --- | --- | --- | --- |
| CN1C[C@H](c2ccc(C(F)(F)F)cc2)[C@@H](C(=O)Nc2ccccc2Br)C1=O [Compound 943] | 90% | 70% | 70% | 20% | 0% | 30% | 0% | 0% | 40% | 40% | 90% | 90% | 90% | 90% | 0% | 50% | 70% | 80% | 0% | 30% | pest or weed control at 125 g/ha [16]: 40%; pest or weed control at 500 g/ha [16]: 50%; pest or weed control at 250 g/ha [17]: 0%; pest or weed control at 250 g/ha [18]: 0%; pest or weed control at 250 g/ha [19]: 0%; pest or weed control at 250 g/ha [20]: 50% |
| CCOc1cccc([C@H]2CNC(=O)[C@@H]2C(=O)Nc2ccccc2F)c1 [Compound 949] | 20% | 90% | 0% | 0% | 0% | 0% | 0% | 0% | 0% | 0% | 60% | 70% | 70% | 100% | 0% | 0% | 20% | 50% | 0% | 0% | pest or weed control at 125 g/ha [16]: 0%; pest or weed control at 500 g/ha [16]: 0%; pest or weed control at 250 g/ha [17]: 0%; pest or weed control at 250 g/ha [18]: 30%; pest or weed control at 250 g/ha [19]: 15%; pest or weed control at 250 g/ha [20]: 100% |
| CN1C[C@H](c2csc(C(F)(F)F)c2)[C@@H](C(=O)Nc2ccccc2F)C1=O [Compound 958] | 90% | 70% | 30% | 0% | 0% | 0% | 0% | 0% | 30% | 0% | 90% | 90% | 90% | 90% | 0% | 20% | 0% | 90% | 20% | 60% | pest or weed control at 125 g/ha [16]: 0%; pest or weed control at 500 g/ha [16]: 30%; pest or weed control at 250 g/ha [17]: 0%; pest or weed control at 250 g/ha [18]: 55%; pest or weed control at 250 g/ha [19]: 15%; pest or weed control at 250 g/ha [20]: 100% |
| O=C1NC[C@H](c2cc(C(F)(F)F)cs2)[C@H]1C(=O)Nc1cccc(F)c1F [Compound 961] | 30% | 90% | 30% | 20% | 20% | 50% | 0% | 20% | 30% | 0% | 70% | 90% | 90% | 90% | 30% | 80% | 70% | 90% | 60% | 90% | pest or weed control at 125 g/ha [16]: 0%; pest or weed control at 500 g/ha [16]: 30%; pest or weed control at 250 g/ha [17]: 0%; pest or weed control at 250 g/ha [18]: 40%; pest or weed control at 250 g/ha [19]: 20%; pest or weed control at 250 g/ha [20]: 100% |

Reference: patent US12077503B2, “Substituted cyclic amides and their use as herbicides” (FMC CORPORATION, priority 2015, dated 2024)
